# In patent US8344010B2, “Fused imidazole derivatives as TRPV3 antagonist” (Glenmark Pharmaceuticals S.A., priority 2008, dated 2013):
# pIC50: −log10 of the molar value.
# Biological target: T1, Human TRPV3 (Homo sapiens, UniProt Q8NET8)
# T1 construct: expressed in transfected cells; host or cells: CHO cells (selected with G-418)
# T1 sequence (Q8NET8 1-790): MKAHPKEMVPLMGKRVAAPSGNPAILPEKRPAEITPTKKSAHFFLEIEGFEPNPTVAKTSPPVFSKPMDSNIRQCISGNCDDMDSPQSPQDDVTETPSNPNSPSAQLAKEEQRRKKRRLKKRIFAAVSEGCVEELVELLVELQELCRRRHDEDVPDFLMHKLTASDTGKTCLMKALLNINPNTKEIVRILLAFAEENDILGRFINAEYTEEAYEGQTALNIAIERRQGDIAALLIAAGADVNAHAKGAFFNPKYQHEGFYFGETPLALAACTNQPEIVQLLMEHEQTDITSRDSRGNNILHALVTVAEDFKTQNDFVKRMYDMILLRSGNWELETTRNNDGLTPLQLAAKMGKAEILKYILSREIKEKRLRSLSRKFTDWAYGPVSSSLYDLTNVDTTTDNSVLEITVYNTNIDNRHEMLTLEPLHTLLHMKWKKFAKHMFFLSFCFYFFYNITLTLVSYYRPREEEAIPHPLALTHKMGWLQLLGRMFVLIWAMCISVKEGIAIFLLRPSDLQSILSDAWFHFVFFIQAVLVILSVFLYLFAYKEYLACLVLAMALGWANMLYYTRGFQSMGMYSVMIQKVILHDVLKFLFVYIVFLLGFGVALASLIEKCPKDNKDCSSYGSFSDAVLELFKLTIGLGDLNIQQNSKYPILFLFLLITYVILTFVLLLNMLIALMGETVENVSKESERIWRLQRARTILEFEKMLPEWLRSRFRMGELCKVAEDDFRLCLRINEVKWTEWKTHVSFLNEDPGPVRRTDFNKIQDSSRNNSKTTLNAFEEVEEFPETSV
# Assay: 45Calcium uptake assay: inhibition of 2-APB induced cellular uptake of radioactive calcium
# Assay type: cell-based
# Conditions: human TRPV3 expressing CHO cells, 2-APB 500 μM; for inhibition at 1 µM: 1 μM test compound, read-out: Percentage Inhibition (1 μM); for inhibition at 10 µM: 10 μM test compound, read-out: Percentage Inhibition (10 μM); for pIC50: class symbol
# Excerpt: The illustrative examples of the present invention are screened for TRPV3 activity according to a modified procedure described in Tóth, A., Kedei, N., Wang, Y. and Blumberg, P. M. Life Sciences (2003), 73, 487-498. The screening of the compounds can be carried out by other methods and procedures known to a person skilled in the art. Such screening methods may be found in (a) Hu, H.-Z. et al. J. Biol. Chem. (2004), 279, 35741-35747; (b) Smith, G. D. et al. Nature (2002), 418, 186-190; (c) Peier, A. M. et al. Science (2002), 296, 2046-2049.
# Screening for TRPV3 antagonist using the ^45Calcium uptake assay The inhibition of TRPV3 receptor activation was followed as inhibition of 2-aminoethoxydiphenylborate (2-APB) induced cellular uptake of radioactive calcium. Test compounds were dissolved in dimethyl sulfoxide (DMSO) to prepare 20 mM stock solution and then diluted using plain medium with DMEM/F-12 containing 1.8 mM CaCl2 to get desired concentration. Final concentration of DMSO in the reaction was 0.5% (v/v). Human TRPV3 expressing CHO cells were grown in DMEM/F-12 medium with 10% FBS, 1% penicillin-streptomycin solution, 400 μg/ml of G-418. Cells were seeded 24 h prior to the assay in 96 well plates so as to get ˜50,000 cells per well on the day of experiment. Cells were treated with test compounds for 10 minutes followed by addition of 2-APB at a final concentration of 500 μM and 5 μCi/ml^45Ca^+2 for 4 minutes. Cells were washed and lysed using buffer containing 1% Triton X-100, 0.1% deoxycholate and 0.1% SDS. Radioactivity in the lysate was measured in Packardt Top count after addition of liquid scintillant. Concentration response curves were plotted as a % of maximal response obtained in the absence of test antagonist. IC50 value was calculated from concentration response curve by nonlinear regression analysis using GraphPad PRISM software.
# Percentage inhibition at concentrations of 1.0 μM and 10.0 μM are given in the table along with IC50 details for selected examples.
SMILES,inhibition at 1 µM,inhibition at 10 µM,pIC50
"COc1cccc(/C=C/c2nc3ccccc3n2-c2ccccn2)c1OCC1CC1 [Example 1, 2-{(E)-2-[2-(Cyclopropylmethoxy)-3-methoxyphenyl]vinyl}-1-pyridin-2-yl-1H-benzimidazole]",12.8%,78.5%,–
"COc1cccc(/C=C/c2nc3ccccc3n2-c2ccccn2)c1OC1CCCC1 [Example 2, 2-[(E)-2-(2-Cyclopentyloxy-3-methoxyphenyl)vinyl]-1-pyridin-2-yl-1H-benzimidazole]",3.64%,85%,–
"COc1cccc(/C=C/c2nc3ccccc3n2-c2ccc(Cl)cn2)c1OC1CCCC1 [Example 3, 1-(5-Chloropyridin-2-yl)-2-{(E)-2-[2-(cyclopentyloxy)-3-methoxyphenyl]vinyl}-1H-benzimidazole]",62.1%,86.6%,< 6.30
"COc1cccc(/C=C/c2nc3ccccc3n2-c2ccc([N+](=O)[O-])cn2)c1OC1CCCC1 [Example 4, 2-[(E)-2-(2-[Cyclopentyloxy]-3-methoxyphenyl)vinyl]-1-(5-nitropyridin-2-yl)-1H-benzimidazole]",50.9%,81.7%,–
"COc1cccc(/C=C/c2nc3ccccc3n2-c2ncc(Cl)cc2Cl)c1OCc1ccccc1 [Example 5, 2-[(E)-2-(2-Benzyloxy-3-methoxyphenyl)vinyl]-1-(3,5-dichloropyridin-2-yl)-1H-benzimidazole]",38.8%,69.3%,–
"COc1cccc(/C=C/c2nc3ccccc3n2-c2ncc(Cl)cc2Cl)c1OCc1ccccc1F [Example 6, 1-(3,5-Dichloropyridin-2-yl)-2-{(E)-2-[2-(2-fluorobenzyloxy)-3-methoxyphenyl]vinyl}-1H-benzimidazole]",66.8%,89%,< 6.30
"COc1cccc(/C=C/c2nc3ccccc3n2-c2ncccc2C#N)c1OC1CCCC1 [Example 7, 2-{2-[(E)-2-(2-Cyclopentyloxy-3-methoxyphenyl)vinyl]-1H-benzimidazol-1-yl}nicotinonitrile]",6.4%,92.8%,–
"CCCCOc1c(/C=C/c2nc3ccccc3n2-c2ccc(C#N)cn2)cccc1OC [Example 8, 6-{2-[(E)-2-(2-Butoxy-3-methoxyphenyl)vinyl]-1H-benzimidazol-1-yl}nicotinonitrile]",91.6%,97%,6.30 to 7.00
"COc1cccc(/C=C/c2nc3ccccc3n2-c2ccc(C#N)cn2)c1OC(C)C [Example 9, 6-{2-[(E)-2-(2-Isopropoxy-3-methoxyphenyl)vinyl]-1H-benzimidazol-1-yl}nicotinonitrile]",79.7%,97.9%,< 6.30
"CCC(CC)Oc1c(/C=C/c2nc3ccccc3n2-c2ccc(C#N)cn2)cccc1OC [Example 10, 6-{2-[(E)-2-(2-(1-Ethylpropoxy)-3-methoxyphenyl)vinyl]-1H-benzimidazol-1-yl}nicotinonitrile]",96.6%,99.1%,6.30 to 7.00
"COc1cccc(/C=C/c2nc3ccccc3n2-c2ccc(C#N)cn2)c1OCC(C)C [Example 11, 6-(2-{(E)-2-[3-methoxy-2-(2-methylpropoxy)phenyl]ethenyl}-1H-benzimidazol-1-yl)pyridine-3-carbonitrile]",94.8%,97.4%,6.30 to 7.00
"COc1cccc(/C=C/c2nc3ccccc3n2-c2ccc(C#N)cn2)c1OCC1CC1 [Example 12, 6-{2-[(E)-2-(2-[Cyclopropylmethoxy]-3-methoxyphenyl)vinyl]-1H-benzimidazol-1-yl}nicotinonitrile]",81.4%,97.7%,6.30 to 7.00
"COc1cccc(/C=C/c2nc3ccccc3n2-c2ccc(C#N)cn2)c1OC1CCCC1 [Example 13, 6-{2-[(E)-2-(2-Cyclopentyloxy-3-methoxyphenyl)vinyl]-1H-benzimidazol-1-yl}nicotinonitrile]",89.1%,95.8%,6.30 to 7.00
"COc1cccc(/C=C/c2nc3ccccc3n2-c2ccc(C#N)cn2)c1OCc1ccccc1F [Example 14, 6-(2-{(E)-2-[2-(2-Fluorobenzyloxy)-3-methoxyphenyl]vinyl}-1H-benzimidazol-1-yl)nicotinonitrile]",93.2%,97.7%,6.30 to 7.00
COc1cccc(/C=C/c2nc3ccccc3n2-c2ccc(C#N)cn2)c1OCc1ccccc1C#N [Example 15],90.3%,95.1%,< 6.30
"COc1cccc(/C=C/c2nc3ccccc3n2-c2ccc(C#N)cn2)c1OCc1ccccc1C(F)(F)F [Example 16, 6-{2-[(E)-2-(3-Methoxy-2-{[2-(trifluoromethyl)benzyl]oxy}phenyl)vinyl]-1H-benzimidazole-1-yl}nicotinonitrile]",97.7%,99%,7.00 to 7.30
"COc1cccc(/C=C/c2nc3ccccc3n2-c2ccc(C#N)cn2)c1OCc1c(F)cccc1F [Example 17, 6-(2-{(E)-2-[2-(2,6-Difluorobenzyloxy)-3-methoxyphenyl]vinyl}-1H-benzimidazol-1-yl)nicotinonitrile]",84.3%,95.8%,6.30 to 7.00
"COc1cccc(/C=C/c2nc3ccccc3n2-c2ccc(C#N)cn2)c1OCc1ccc(F)cc1F [Example 18, 6-(2-{(E)-2-[2-(2,4-Difluorobenzyloxy)-3-methoxyphenyl]vinyl}-1H-benzimidazol-1-yl)nicotinonitrile]",94.2%,97.3%,6.30 to 7.00
"CCOC(=O)c1ccc(-n2c(/C=C/c3cccc(OC)c3OC3CCCC3)nc3ccccc32)nn1 [Example 19, Ethyl 6-{2-[(E)-2-(2-[Cyclopentyloxy]-3-methoxyphenyl)vinyl]-1H-benzimidazol-1-yl}pyridazine-3-carboxylate]",82.9%,95.9%,6.30 to 7.00
"COc1cccc(/C=C/c2nc3ccccc3n2-c2ccc(C#N)nn2)c1OC1CCCC1 [Example 20, 6-{2-[(E)-2-(2-[Cyclopentyloxy]-3-methoxyphenyl)vinyl]-1H-benzimidazol-1-yl}pyridazine-3-carbonitrile]",0%,52.7%,–
COc1cccc(/C=C/c2nc3ccccc3n2-c2ncccn2)c1OC1CCCC1 [Example 21],13%,81.9%,–
"CCC(CC)Oc1c(/C=C/c2nc3ccccc3n2-c2ncc(Br)cn2)cccc1OC [Example 22, 1-(5-Bromopyrimidin-2-yl)-2-{(E)-2-[2-(1-ethylpropoxy)-3-methoxyphenyl]vinyl}-1H-benzimidazole]",70.6%,89.2%,6.30 to 7.00
"COc1cccc(/C=C/c2nc3ccccc3n2-c2ncc(Br)cn2)c1OC1CCCC1 [Example 23, 1-(5-Bromopyrimidin-2-yl)-2-[(E)-2-(2-cyclopentyloxy-3-methoxyphenyl)vinyl]-1H-benzimidazole]",56%,84.5%,–
